{
  "source": "PubChem BioAssay AID330",
  "about": "(DTP/NCI, 2004)",
  "tested_on": "P388 leukemia ip, CD2F1 mice, survival T/C",
  "assay": "NCI In Vivo Anticancer Drug Screen. Data for tumor model P388 Leukemia (intraperitoneal) in CD2F1 (CDF1) mice",
  "conditions": "endpoint: median survival time, higher = longer survival",
  "summary_of_the_method": "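Mice carrying the transplanted tumor received test compound or vehicle. Survival was recorded in each group, and the value is the treated-group measurement divided by that of the vehicle-treated control group.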",
  "key": {"[1]": {"conditions": "dose: 50.0 mg/kg/injection, schedule: Q01DX005 (ip), vehicle: saline with Tween-80"}, "[2]": {"conditions": "dose: 100.0 mg/kg/injection, schedule: Q01DX005 (ip), vehicle: saline with Tween-80"}, "[3]": {"conditions": "dose: 200.0 mg/kg/injection, schedule: Q01DX005 (ip), vehicle: saline with Tween-80"}, "[4]": {"conditions": "dose: 50.0 mg/kg/injection, schedule: Q01DX009 (ip), vehicle: saline with Tween-80"}, "[5]": {"conditions": "dose: 200.0 mg/kg/injection, schedule: Q01DX009 (ip), vehicle: saline with Tween-80"}, "[6]": {"conditions": "dose: 50.0 mg/kg/injection, schedule: Q01DX005 (ip), vehicle: saline"}, "[7]": {"conditions": "dose: 100.0 mg/kg/injection, schedule: Q01DX005 (ip), vehicle: saline"}, "[8]": {"conditions": "dose: 200.0 mg/kg/injection, schedule: Q01DX005 (ip), vehicle: saline"}, "[9]": {"conditions": "dose: 50.0 mg/kg/injection, schedule: Q01DX009 (ip), vehicle: saline"}, "[10]": {"conditions": "dose: 100.0 mg/kg/injection, schedule: Q01DX009 (ip), vehicle: saline"}, "[11]": {"conditions": "dose: 200.0 mg/kg/injection, schedule: Q01DX009 (ip), vehicle: saline"}},
  "note": "Inconclusive results and toxic doses are left out. Peptide text beside a SMILES is read from it.",
  "data": [
    {"smiles": "CCCCOC(=O)NC(=O)c1cc2cc(I)cc(I)c2oc1=O", "values": [
      {"measurement": "T/C", "setting": "dose: 60.0 mg/kg/injection, schedule: Q01DX005 (ip), vehicle: saline with Tween-80", "value": "91 % of control"},
      {"measurement": "T/C", "setting": "dose: 120.0 mg/kg/injection, schedule: Q01DX005 (ip), vehicle: saline with Tween-80", "value": "94 % of control"},
      {"measurement": "T/C", "setting": "dose: 240.0 mg/kg/injection, schedule: Q01DX005 (ip), vehicle: saline with Tween-80", "value": "94 % of control"}
    ]},
    {"smiles": "N#CC(C#N)=C1c2ccccc2C(=O)c2ccccc21", "values": [
      {"measurement": "T/C", "setting": "dose: 50.0 mg/kg/injection, schedule: Q01DX005 (ip), vehicle: Klucel (hydroxypropylcellulose) (HPC)", "value": "88 % of control"},
      {"measurement": "T/C", "setting": "dose: 100.0 mg/kg/injection, schedule: Q01DX005 (ip), vehicle: Klucel (hydroxypropylcellulose) (HPC)", "value": "88 % of control"},
      {"measurement": "T/C", "setting": "dose: 200.0 mg/kg/injection, schedule: Q01DX005 (ip), vehicle: Klucel (hydroxypropylcellulose) (HPC)", "value": "92 % of control"}
    ]},
    {"smiles": "COc1c(Cl)cc(Cl)cc1C(=O)NO", "values": [
      {"measurement": "T/C", "setting": "[1]", "value": "97 % of control"},
      {"measurement": "T/C", "setting": "[2]", "value": "106 % of control"},
      {"measurement": "T/C", "setting": "[3]", "value": "112 % of control"}
    ]},
    {"smiles": "OC1(C#Cc2ccccc2)c2ccccc2C(O)(C#Cc2ccccc2)c2c(C#Cc3ccccc3)cccc21", "note": "(stereo unspecified)", "values": [
      {"measurement": "T/C", "setting": "dose: 12.5 mg/kg/injection, schedule: Q01DX009 (ip), vehicle: saline with Tween-80", "value": "87 % of control"},
      {"measurement": "T/C", "setting": "dose: 25.0 mg/kg/injection, schedule: Q01DX009 (ip), vehicle: saline with Tween-80", "value": "95 % of control"},
      {"measurement": "T/C", "setting": "[4]", "value": "97 % of control"},
      {"measurement": "T/C", "setting": "[5]", "value": "86 % of control"}
    ]},
    {"smiles": "COc1c(C)n(C)n(-c2ccccc2)c1=O", "values": [
      {"measurement": "T/C", "setting": "dose: 6.25 mg/kg/injection, schedule: Q01DX005 (ip), vehicle: saline", "value": "108 % of control"},
      {"measurement": "T/C", "setting": "dose: 12.5 mg/kg/injection, schedule: Q01DX005 (ip), vehicle: saline", "value": "98 % of control"},
      {"measurement": "T/C", "setting": "dose: 25.0 mg/kg/injection, schedule: Q01DX005 (ip), vehicle: saline", "value": "108 % of control"},
      {"measurement": "T/C", "setting": "[6]", "value": "102 % of control"},
      {"measurement": "T/C", "setting": "[7]", "value": "105 % of control"},
      {"measurement": "T/C", "setting": "[8]", "value": "102 % of control"}
    ]},
    {"smiles": "NCCCCC(NC(=O)C(Cc1cnc[nH]1)NC(=O)CN)C(=O)O", "note": "(stereo not drawn) (H-Gly-His-Lys-OH; configuration not given here)", "values": [
      {"measurement": "T/C", "setting": "[6]", "value": "109 % of control"},
      {"measurement": "T/C", "setting": "[7]", "value": "104 % of control"},
      {"measurement": "T/C", "setting": "[8]", "value": "100 % of control"}
    ]},
    {"smiles": "CC1CN2COC(=S)SSSSC(=S)OCN3CC(C)N(COC(=S)SSSSC(=S)OCN1CC2C)CC3C", "note": "(stereo unspecified)", "values": [
      {"measurement": "T/C", "setting": "[1]", "value": "99 % of control"},
      {"measurement": "T/C", "setting": "[2]", "value": "103 % of control"},
      {"measurement": "T/C", "setting": "[3]", "value": "106 % of control"}
    ]},
    {"smiles": "NC(CCCCNCC(N)C(=O)O)C(=O)O", "note": "(stereo unspecified)", "values": [
      {"measurement": "T/C", "setting": "[9]", "value": "91 % of control"},
      {"measurement": "T/C", "setting": "[10]", "value": "89 % of control"},
      {"measurement": "T/C", "setting": "[11]", "value": "92 % of control"}
    ]},
    {"smiles": "CN1NC(c2ccc(N(C)C)cc2)(c2ccc(N(C)C)cc2)c2ccc(N(C)C)cc2C1=O", "values": [
      {"measurement": "T/C", "setting": "dose: 100.0 mg/kg/injection, schedule: Q04DX002 (ip), vehicle: saline with Tween-80", "value": "90 % of control"},
      {"measurement": "T/C", "setting": "dose: 200.0 mg/kg/injection, schedule: Q04DX002 (ip), vehicle: saline with Tween-80", "value": "88 % of control"},
      {"measurement": "T/C", "setting": "dose: 400.0 mg/kg/injection, schedule: Q04DX002 (ip), vehicle: saline with Tween-80", "value": "88 % of control"}
    ]},
    {"smiles": "COC1C=C(C)C(=O)O1", "note": "(stereo unspecified)", "values": [
      {"measurement": "T/C", "setting": "[6]", "value": "106 % of control"},
      {"measurement": "T/C", "setting": "[7]", "value": "101 % of control"},
      {"measurement": "T/C", "setting": "[8]", "value": "101 % of control"}
    ]},
    {"smiles": "CCCCCC/C=C\\C(=O)O[C@H]1C(=O)O[C@@H]2C[C@H]3C(C)=C(O)C(=O)C[C@]3(C)[C@H]3[C@@H](O)[C@H](O)[C@@]4(C(=O)OC)OC[C@]32[C@@H]14", "values": [
      {"measurement": "T/C", "setting": "dose: 0.75 mg/kg/injection, schedule: Q01DX005 (ip), vehicle: Klucel (hydroxypropylcellulose) (HPC)", "value": "105 % of control"},
      {"measurement": "T/C", "setting": "dose: 1.5 mg/kg/injection, schedule: Q01DX005 (ip), vehicle: Klucel (hydroxypropylcellulose) (HPC)", "value": "111 % of control"},
      {"measurement": "T/C", "setting": "dose: 3.0 mg/kg/injection, schedule: Q01DX005 (ip), vehicle: Klucel (hydroxypropylcellulose) (HPC)", "value": "112 % of control"},
      {"measurement": "T/C", "setting": "dose: 6.0 mg/kg/injection, schedule: Q01DX005 (ip), vehicle: Klucel (hydroxypropylcellulose) (HPC)", "value": "116 % of control"}
    ]},
    {"smiles": "COC(=O)C/C(=C/C=C1/C(=O)ON=C1C)c1c(C)[nH]oc1=O", "values": [
      {"measurement": "T/C", "setting": "dose: 100.0 mg/kg/injection, schedule: Q04DX003 (ip), vehicle: saline", "value": "100 % of control"},
      {"measurement": "T/C", "setting": "dose: 200.0 mg/kg/injection, schedule: Q04DX003 (ip), vehicle: saline", "value": "100 % of control"},
      {"measurement": "T/C", "setting": "dose: 400.0 mg/kg/injection, schedule: Q04DX003 (ip), vehicle: saline", "value": "100 % of control"}
    ]},
    {"smiles": "CN(C)C(=S)Oc1ccccc1C1SCCS1", "values": [
      {"measurement": "T/C", "setting": "[1]", "value": "101 % of control"},
      {"measurement": "T/C", "setting": "[2]", "value": "99 % of control"},
      {"measurement": "T/C", "setting": "[3]", "value": "105 % of control"}
    ]},
    {"smiles": "COC1(OC)C2C=CC1C1CC/C=C\\CCC12", "note": "(stereo unspecified)", "values": [
      {"measurement": "T/C", "setting": "[4]", "value": "106 % of control"},
      {"measurement": "T/C", "setting": "dose: 100.0 mg/kg/injection, schedule: Q01DX009 (ip), vehicle: saline with Tween-80", "value": "100 % of control"},
      {"measurement": "T/C", "setting": "[5]", "value": "103 % of control"}
    ]},
    {"smiles": "CCCCNP(=O)(N1CC1CC)N1CC1CC", "note": "(stereo unspecified)", "values": [
      {"measurement": "T/C", "setting": "[9]", "value": "122 % of control"},
      {"measurement": "T/C", "setting": "[10]", "value": "150 % of control"},
      {"measurement": "T/C", "setting": "[11]", "value": "104 % of control"},
      {"measurement": "T/C", "setting": "dose: 300.0 mg/kg/injection, schedule: Q04DX003 (ip), vehicle: saline", "value": "195 % of control"}
    ]}
  ]
}
